Laboratory results published in US8952024B2, “Herbicidal pyrimidone derivatives” (E I du Pont de Nemours and Company, priority 2009, dated 2015).

Assays:
Assay in all cases: Test B pre-/postemergence plant response
Assay type in all cases: in vivo
[1] = test system: velvetleaf (Abutilon theophrasti)
Summary of the method: (§1)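 Plants treated either at seeding (loam/sand soil) or postemergence at 2 to 18 cm height, using a surfactant-containing non-phytotoxic solvent formulation. Evaluation was visual after 13 to 15 days, 0 to 100 scale relative to controls.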

[2] = test system: pigweed (Amaranthus retroflexus)
Summary of the method: as §1

[3] = test system: downy bromegrass (Bromus tectorum)
Summary of the method: as §1

[4] = test system: blackgrass (Alopecurus myosuroides)
Summary of the method: as §1

[5] = test system: johnsongrass (Sorghum halepense)
Summary of the method: as §1

soybean (Glycine max) = test system: soybean (Glycine max)
Summary of the method: as §1

[6] = test system: ragweed (common ragweed, Ambrosia elatior)
Summary of the method: as §1

[7] = test system: lambsquarters (Chenopodium album)
Summary of the method: as §1

wild oat (Avena fatua) = test system: wild oat (Avena fatua)
Summary of the method: as §1

[8] = test system: woolly cupgrass (Eriochloa villosa)
Summary of the method: as §1

kochia (Kochia scoparia) = test system: kochia (Kochia scoparia)
Summary of the method: as §1

[9] = test system: large crabgrass (Digitaria sanguinalis)
Summary of the method: as §1

[10] = test system: Surinam grass (Brachiaria decumbens)
Summary of the method: as §1

corn (Zea mays) = test system: corn (Zea mays)
Summary of the method: as §1

[11] = test system: yellow nutsedge (Cyperus esculentus)
Summary of the method: as §1

[12] = test system: Italian ryegrass (Lolium multiflorum)
Summary of the method: as §1

[13] = test system: wheat (Triticum aestivum)
Summary of the method: as §1

[14] = test system: goosegrass (Eleusine indica)
Summary of the method: as §1

[15] = 31 g ai/ha, postemergence, scale 0 to 100, 0 is no effect, 100 is complete control
[16] = 62 g ai/ha, postemergence, 0 is no effect, 100 is complete control, 13 to 15 days
[17] = Postemergence, 125 g ai/ha, visual rating after 13 to 15 days, scale 0 (no effect) to 100 (complete control)
[18] = Postemergence, 250 g ai/ha, scale 0 to 100 (0 no effect, 100 complete control)
[19] = Preemergence, 31 g ai/ha, scale 0 to 100 (0 no effect, 100 complete control)
[20] = Preemergence, 62 g ai/ha, scale 0 to 100, 0 no effect, 100 complete control
[21] = Preemergence, 125 g ai/ha, scale 0 to 100, 0 no effect, 100 complete control
[22] = Preemergence, 250 g ai/ha, 0 to 100 scale

Compound: CCCCn1c(CCC)ncc(C(=O)C2=C(O)CCCC2=O)c1=O [Compound 75]
- Plant response rating, Velvetleaf [1, 15]: 100
- Velvetleaf plant response rating (0 to 100 scale) [1, 16]: 100
- Plant response rating, Velvetleaf [1, 17]: 100
- Plant response rating, Velvetleaf [1, 18]: 100
- Plant response rating, Velvetleaf [1, 19]: 100
- Plant response rating, Velvetleaf [1, 20]: 100
- Plant response rating, Velvetleaf [1, 21]: 100
- Velvetleaf plant response rating [1, 22]: 100
- Plant response rating, Pigweed [2, 15]: 100
- Pigweed plant response rating (0 to 100 scale) [2, 16]: 100
- Plant response rating, Pigweed [2, 17]: 100
- Plant response rating, Pigweed [2, 18]: 100
- Plant response rating, Pigweed [2, 19]: 98
- Plant response rating, Pigweed [2, 20]: 100
- Plant response rating, Pigweed [2, 21]: 100
- Pigweed plant response rating [2, 22]: 100
- Plant response rating, Bromegrass, Downy [3, 15]: 5
- Bromegrass, Downy plant response rating (0 to 100 scale) [3, 16]: 20
- Plant response rating, Bromegrass, Downy [3, 17]: 35
- Plant response rating, Bromegrass, Downy [3, 18]: 50
- Plant response rating, Bromegrass, Downy [3, 19]: 0
- Plant response rating, Bromegrass, Downy [3, 20]: 0
- Plant response rating, Bromegrass, Downy [3, 21]: 0
- Bromegrass, Downy plant response rating [3, 22]: 0
- Plant response rating, Blackgrass [4, 15]: 0
- Blackgrass plant response rating (0 to 100 scale) [4, 16]: 0
- Plant response rating, Blackgrass [4, 17]: 0
- Plant response rating, Blackgrass [4, 18]: 20
- Plant response rating, Blackgrass [4, 19]: 0
- Plant response rating, Blackgrass [4, 20]: 0
- Plant response rating, Blackgrass [4, 21]: 5
- Blackgrass plant response rating [4, 22]: 10
- Plant response rating, Johnsongrass [5, 15]: 0
- Johnsongrass plant response rating (0 to 100 scale) [5, 16]: 10
- Plant response rating, Johnsongrass [5, 17]: 20
- Plant response rating, Johnsongrass [5, 18]: 75
- Plant response rating, Johnsongrass [5, 19]: 0
- Plant response rating, Johnsongrass [5, 20]: 10
- Plant response rating, Johnsongrass [5, 21]: 65
- Johnsongrass plant response rating [5, 22]: 70
- Plant response rating, Soybean (soybean (Glycine max); [15]): 80
- Soybean plant response rating (0 to 100 scale) (soybean (Glycine max); [16]): 95
- Plant response rating, Soybean (soybean (Glycine max); [17]): 98
- Plant response rating, Soybean (soybean (Glycine max); [18]): 98
- Plant response rating, Ragweed [6, 15]: 80
- Ragweed plant response rating (0 to 100 scale) [6, 16]: 85
- Plant response rating, Ragweed [6, 17]: 90
- Plant response rating, Ragweed [6, 18]: 95
- Plant response rating, Ragweed [6, 19]: 75
- Plant response rating, Ragweed [6, 20]: 75
- Plant response rating, Ragweed [6, 21]: 95
- Ragweed plant response rating [6, 22]: 95
- Plant response rating, Lambsquarters [7, 15]: 98
- Lambsquarters plant response rating (0 to 100 scale) [7, 16]: 100
- Plant response rating, Lambsquarters [7, 17]: 100
- Plant response rating, Lambsquarters [7, 18]: 100
- Plant response rating, Lambsquarters [7, 19]: 98
- Plant response rating, Lambsquarters [7, 20]: 100
- Plant response rating, Lambsquarters [7, 21]: 100
- Lambsquarters plant response rating [7, 22]: 100
- Plant response rating, Oat, Wild (wild oat (Avena fatua); [15]): 0
- Oat, Wild plant response rating (0 to 100 scale) (wild oat (Avena fatua); [16]): 20
- Plant response rating, Oat, Wild (wild oat (Avena fatua); [17]): 50
- Plant response rating, Oat, Wild (wild oat (Avena fatua); [18]): 60
- Plant response rating, Oat, Wild (wild oat (Avena fatua); [19]): 0
- Plant response rating, Oat, Wild (wild oat (Avena fatua); [20]): 0
- Plant response rating, Oat, Wild (wild oat (Avena fatua); [21]): 0
- Oat, Wild plant response rating (wild oat (Avena fatua); [22]): 0
- Plant response rating, Cupgrass, Woolly [8, 15]: 10
- Cupgrass, Woolly plant response rating (0 to 100 scale) [8, 16]: 55
- Plant response rating, Cupgrass, Woolly [8, 17]: 55
- Plant response rating, Cupgrass, Woolly [8, 18]: 80
- Plant response rating, Cupgrass, Woolly [8, 19]: 5
- Plant response rating, Cupgrass, Woolly [8, 21]: 55
- Cupgrass, Woolly plant response rating [8, 22]: 75
- Plant response rating, Kochia (kochia (Kochia scoparia); [15]): 75
- Kochia plant response rating (0 to 100 scale) (kochia (Kochia scoparia); [16]): 95
- Plant response rating, Kochia (kochia (Kochia scoparia); [17]): 100
- Plant response rating, Kochia (kochia (Kochia scoparia); [18]): 100
- Plant response rating, Kochia (kochia (Kochia scoparia); [19]): 80
- Plant response rating, Kochia (kochia (Kochia scoparia); [20]): 90
- Plant response rating, Kochia (kochia (Kochia scoparia); [21]): 90
- Kochia plant response rating (kochia (Kochia scoparia); [22]): 95
- Plant response rating, Crabgrass, Large [9, 15]: 95
- Crabgrass, Large plant response rating (0 to 100 scale) [9, 16]: 98
- Plant response rating, Crabgrass, Large [9, 17]: 100
- Plant response rating, Crabgrass, Large [9, 18]: 100
- Plant response rating, Crabgrass, Large [9, 19]: 98
- Plant response rating, Crabgrass, Large [9, 20]: 100
- Plant response rating, Crabgrass, Large [9, 21]: 100
- Crabgrass, Large plant response rating [9, 22]: 100
- Plant response rating, Surinam Grass [10, 15]: 50
- Surinam Grass plant response rating (0 to 100 scale) [10, 16]: 50
- Plant response rating, Surinam Grass [10, 17]: 70
- Plant response rating, Surinam Grass [10, 18]: 85
- Plant response rating, Surinam Grass [10, 19]: 40
- Plant response rating, Surinam Grass [10, 20]: 60
- Plant response rating, Surinam Grass [10, 21]: 60
- Surinam Grass plant response rating [10, 22]: 75
- Plant response rating, Corn (corn (Zea mays); [15]): 0
- Corn plant response rating (0 to 100 scale) (corn (Zea mays); [16]): 0
- Plant response rating, Corn (corn (Zea mays); [17]): 20
- Plant response rating, Corn (corn (Zea mays); [18]): 55
- Plant response rating, Corn (corn (Zea mays); [19]): 0
- Plant response rating, Corn (corn (Zea mays); [20]): 0
- Plant response rating, Corn (corn (Zea mays); [21]): 0
- Corn plant response rating (corn (Zea mays); [22]): 0
- Plant response rating, Nutsedge, Yellow [11, 15]: 10
- Nutsedge, Yellow plant response rating (0 to 100 scale) [11, 16]: 65
- Plant response rating, Nutsedge, Yellow [11, 17]: 70
- Plant response rating, Nutsedge, Yellow [11, 18]: 75
- Plant response rating, Nutsedge, Yellow [11, 19]: 60
- Plant response rating, Nutsedge, Yellow [11, 20]: 80
- Plant response rating, Nutsedge, Yellow [11, 21]: 90
- Nutsedge, Yellow plant response rating [11, 22]: 90
- Plant response rating, Ryegrass, Italian [12, 15]: 0
- Ryegrass, Italian plant response rating (0 to 100 scale) [12, 16]: 15
- Plant response rating, Ryegrass, Italian [12, 17]: 40
- Plant response rating, Ryegrass, Italian [12, 18]: 60
- Plant response rating, Ryegrass, Italian [12, 19]: 0
- Plant response rating, Ryegrass, Italian [12, 20]: 0
- Plant response rating, Ryegrass, Italian [12, 21]: 0
- Ryegrass, Italian plant response rating [12, 22]: 0
- Plant response rating, Wheat [13, 15]: 0
- Wheat plant response rating (0 to 100 scale) [13, 16]: 0
- Plant response rating, Wheat [13, 17]: 10
- Plant response rating, Wheat [13, 18]: 25
- Plant response rating, Wheat [13, 19]: 0
- Plant response rating, Wheat [13, 20]: 0
- Plant response rating, Wheat [13, 21]: 0
- Wheat plant response rating [13, 22]: 0
- Plant response rating, Goosegrass [14, 15]: 75
- Goosegrass plant response rating (0 to 100 scale) [14, 16]: 80
- Plant response rating, Goosegrass [14, 17]: 95
- Plant response rating, Goosegrass [14, 18]: 98
- Plant response rating, Goosegrass [14, 19]: 95
- Plant response rating, Goosegrass [14, 20]: 100
- Plant response rating, Goosegrass [14, 21]: 100
- Goosegrass plant response rating [14, 22]: 100
